Laboratory results published in US9796711B2, “Substituted pyrazolo[3,4-b]pyridin-6-carboxylic acids and method of use” (AbbVie S.àr.l., priority 2015, dated 2017).

Legend:
ΔF508-CFTR [1] = molecular target: T1, ΔF508-CFTR (Homo sapiens, UniProt P13569, DEL508-508); test: CFTR cell surface levels using HRP-tagged ΔF508-CFTR expressing CFBE cells, intrinsic corrector capacity; format: cell-based; details: HRP-tagged ΔF508-CFTR CFBE41o- cells, compounds alone (intrinsic corrector capacity), 20 hours at 33° C.; for % Activation: positive control 3 μM corrector; for EC50: read-out: EC50
T1 construct: host or cells: CFBE41o-, doxycycline-inducible
T1 sequence (P13569 with tags, fused parts or gaps DEL508-508): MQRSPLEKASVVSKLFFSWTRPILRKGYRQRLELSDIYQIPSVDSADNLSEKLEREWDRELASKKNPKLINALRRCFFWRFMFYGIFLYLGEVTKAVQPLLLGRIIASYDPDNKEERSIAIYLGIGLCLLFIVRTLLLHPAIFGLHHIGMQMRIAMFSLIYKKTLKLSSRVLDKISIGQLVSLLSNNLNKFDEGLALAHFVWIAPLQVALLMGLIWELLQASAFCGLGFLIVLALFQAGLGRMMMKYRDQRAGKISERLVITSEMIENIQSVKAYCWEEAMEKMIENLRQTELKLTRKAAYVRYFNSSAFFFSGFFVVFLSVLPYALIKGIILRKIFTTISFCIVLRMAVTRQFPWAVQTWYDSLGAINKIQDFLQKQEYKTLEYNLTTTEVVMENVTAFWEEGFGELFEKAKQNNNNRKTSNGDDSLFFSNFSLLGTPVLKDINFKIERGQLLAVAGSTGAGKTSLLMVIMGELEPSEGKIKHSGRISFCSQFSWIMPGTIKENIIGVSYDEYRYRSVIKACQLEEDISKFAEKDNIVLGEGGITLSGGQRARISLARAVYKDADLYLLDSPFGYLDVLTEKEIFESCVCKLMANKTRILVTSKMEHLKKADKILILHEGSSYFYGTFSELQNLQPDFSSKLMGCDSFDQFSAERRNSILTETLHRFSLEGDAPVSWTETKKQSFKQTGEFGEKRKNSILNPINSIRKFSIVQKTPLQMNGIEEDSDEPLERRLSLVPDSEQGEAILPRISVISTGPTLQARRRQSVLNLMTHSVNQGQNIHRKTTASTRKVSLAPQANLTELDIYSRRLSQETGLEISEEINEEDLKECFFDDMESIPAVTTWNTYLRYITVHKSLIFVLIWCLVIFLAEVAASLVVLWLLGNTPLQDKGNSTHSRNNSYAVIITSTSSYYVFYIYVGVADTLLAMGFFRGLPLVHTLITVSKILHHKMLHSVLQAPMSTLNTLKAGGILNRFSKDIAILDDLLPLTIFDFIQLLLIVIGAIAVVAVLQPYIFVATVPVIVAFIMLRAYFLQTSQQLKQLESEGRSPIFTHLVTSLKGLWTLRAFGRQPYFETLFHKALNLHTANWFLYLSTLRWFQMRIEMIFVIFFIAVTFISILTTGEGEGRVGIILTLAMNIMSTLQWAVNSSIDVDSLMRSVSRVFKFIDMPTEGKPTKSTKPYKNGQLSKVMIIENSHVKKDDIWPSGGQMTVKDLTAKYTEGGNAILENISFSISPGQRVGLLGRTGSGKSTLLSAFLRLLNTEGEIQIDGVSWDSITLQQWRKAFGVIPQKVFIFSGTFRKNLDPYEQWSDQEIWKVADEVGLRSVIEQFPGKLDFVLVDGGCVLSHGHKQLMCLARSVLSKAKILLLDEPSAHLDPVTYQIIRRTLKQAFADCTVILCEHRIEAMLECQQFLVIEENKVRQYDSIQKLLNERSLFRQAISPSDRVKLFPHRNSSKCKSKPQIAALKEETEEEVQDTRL
Outline: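 Here the cells express ΔF508-CFTR with horseradish peroxidase inserted in extracellular loop 4, so only rescued channel at the surface gives luminescent signal. Compounds act on their own, 20 h at the reduced temperature of 33 °C; values are percent activity relative to DMSO and a 3 μM corrector.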

ΔF508-CFTR [2] = molecular target: T1, ΔF508-CFTR; test: CFTR cell surface levels using HRP-tagged ΔF508-CFTR expressing CFBE cells, in the presence of a co-corrector; format: cell-based; details: HRP-tagged ΔF508-CFTR expressing CFBE cells, in the presence of 3 μM co-corrector; for EC50: read-out: EC50
Outline: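 Cells were seeded with 0.5 μg/mL doxycycline and held 68 h at 37 °C. Test compounds plus 3 μM co-corrector (final 0.1% DMSO) were then added for 20 h at 33 °C. Washed cells received HRP substrate, and luminescence was normalized between DMSO and 3 μM co-corrector controls.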

Row | SMILES | % Activation (ΔF508-CFTR [1]) | EC50 (ΔF508-CFTR [1]) | % Activation (ΔF508-CFTR [2]) | EC50 (ΔF508-CFTR [2])
1 | COCCN(C)c1ncc(-c2cc(C(=O)O)nc3c2c(C(C)C)nn3C2CCCCC2)cn1 [compound 237, 1-cyclohexyl-4-{2-[(2-methoxyethyl)(methyl)amino]pyrimidin-5-yl}-3-(propan-2-yl)-1H-pyrazolo[3,4-b]pyridine-6-carboxylic acid] | 227% | 510 nM | 372.97% | 324 nM
2 | COCCN(C)c1ccc(-c2cc(C(=O)O)nc3c2c(C(C)C)nn3-c2cccc(N3CCCC3)c2)cc1 [compound 238, 4-{4-[(2-methoxyethyl)(methyl)amino]phenyl}-3-(propan-2-yl)-1-[3-(pyrrolidin-1-yl)phenyl]-1H-pyrazolo[3,4-b]pyridine-6-carboxylic acid] | 393.7% | 827 nM | 613.4% | 540 nM
3 | COCCN(C)c1ccc(-c2cc(C(=O)O)nc3c2c(C(C)C)nn3-c2cccc(N3CCC3)c2)cn1 [compound 239, 1-[3-(azetidin-1-yl)phenyl]-4-{6-[(2-methoxyethyl)(methyl)amino]pyridin-3-yl}-3-(propan-2-yl)-1H-pyrazolo[3,4-b]pyridine-6-carboxylic acid] | 327.55% | 875 nM | 495.85% | 713 nM
4 | CC(C)c1nn(-c2cccc(N3CCC3)c2)c2nc(C(=O)O)cc(-c3ccc(N(C)C4CCOCC4)cc3)c12 [compound 240, 1-[3-(azetidin-1-yl)phenyl]-4-{4-[methyl(oxan-4-yl)amino]phenyl}-3-(propan-2-yl)-1H-pyrazolo[3,4-b]pyridine-6-carboxylic acid] | 380.6% | 588 nM | 609.05% | 516 nM
5 | CC(C)c1nn(-c2cc(N3CCOCC3)ccn2)c2nc(C(=O)O)cc(-c3ccc(N4CCOCC4)cc3)c12 [compound 241, 4-[4-(morpholin-4-yl)phenyl]-1-[4-(morpholin-4-yl)pyridin-2-yl]-3-(propan-2-yl)-1H-pyrazolo[3,4-b]pyridine-6-carboxylic acid] | 60.46% | 3340 nM | 259.75% | 2140 nM
6 | CC(C)c1nn(-c2cccc(F)c2)c2nc(C(=O)O)cc(-c3ccc(N4CCOCC4)cc3)c12 [compound 242, 1-(3-fluorophenyl)-4-[4-(morpholin-4-yl)phenyl]-3-(propan-2-yl)-1H-pyrazolo[3,4-b]pyridine-6-carboxylic acid] | 206.5% | 603 nM | 394.12% | 338 nM
7 | CC(C)c1nn(-c2ccc(F)c(F)c2)c2nc(C(=O)O)cc(-c3ccc(N4CCOCC4)cc3)c12 [compound 243, 1-(3,4-difluorophenyl)-4-[4-(morpholin-4-yl)phenyl]-3-(propan-2-yl)-1H-pyrazolo[3,4-b]pyridine-6-carboxylic acid] | 224.73% | 660 nM | 402.73% | 408 nM
8 | CC(C)c1nn(-c2cc(F)cc(F)c2)c2nc(C(=O)O)cc(-c3ccc(N(C)C4CCOCC4)cc3)c12 [compound 245, 1-(3,5-difluorophenyl)-4-{4-[methyl(oxan-4-yl)amino]phenyl}-3-(propan-2-yl)-1H-pyrazolo[3,4-b]pyridine-6-carboxylic acid] | 267.15% | 777 nM | 508.37% | 627 nM
9 | CC(C)c1nn(-c2cc(F)cc(F)c2)c2nc(C(=O)O)cc(-c3ccc(N(C)C4CCOCC4)nc3)c12 [compound 246, 1-(3,5-difluorophenyl)-4-{6-[methyl(oxan-4-yl)amino]pyridin-3-yl}-3-(propan-2-yl)-1H-pyrazolo[3,4-b]pyridine-6-carboxylic acid] | 212.75% | 464 nM | 457.57% | 467 nM
10 | N#CC1CCN(c2ccc(-c3cc(C(=O)O)nc4c3c(C3CCC3)nn4-c3cccc(N4CCCC4)c3)cc2)CC1 [compound 247, 4-[4-(4-cyanopiperidin-1-yl)phenyl]-3-cyclobutyl-1-[3-(pyrrolidin-1-yl)phenyl]-1H-pyrazolo[3,4-b]pyridine-6-carboxylic acid] | 390.27% | 420 nM | 569.07% | 332 nM
11 | N#CC1CCN(c2ccc(-c3cc(C(=O)O)nc4c3c(C3CCC3)nn4-c3cccc(N4CCCC4)c3)cn2)CC1 [compound 248] | 405.93% | 550 nM | 606.83% | 422 nM
12 | CC(C)c1nn(-c2cccc(N3CCCC3)c2)c2nc(C(=O)O)cc(-c3ccc(N(C)C4CCOCC4)cc3)c12 [compound 249, 4-{4-[nethyl(oxan-4-yl)amino]phenyl}-3-(propan-2-yl)-1-[3-(pyrrolidin-1-yl)phenyl]-1H-pyrazolo[3,4-b]pyridine-6-carboxylic acid] | 410.6% | 475 nM | 596.2% | 288 nM
13 | CC(C)c1nn(-c2cccc(N3CCCC3)c2)c2nc(C(=O)O)cc(-c3ccc(N(C)C4CCOCC4)nc3)c12 [compound 250, 4-{6-[methyl(oxan-4-yl)amino]pyridin-3-yl}-3-(propan-2-yl)-1[3-(pyrrolidin-1-yl)phenyl]-1H-pyrazolo[3,4-b]pyridine-6-carboxylic acid] | 394.7% | 456 nM | 622.03% | 508 nM
14 | CN(c1ccc(-c2cc(C(=O)O)nc3c2c(C2CCC2)nn3-c2cccc(N3CCCC3)c2)cc1)C1CCOCC1 [compound 251, 3-cyclobutyl-4-{4-[methyl(oxan-4-yl)amino]phenyl}-1-[3-(pyrrolidin-1-yl)phenyl]-1H-pyrazolo[3,4-b]pyridine-6-carboxylic acid] | 389.2% | 438 nM | 577.73% | 353 nM
15 | CN(c1ccc(-c2cc(C(=O)O)nc3c2c(C2CCC2)nn3-c2cccc(N3CCCC3)c2)cn1)C1CCOCC1 [compound 252, 3-cyclobutyl-4-{6-[methyl(oxan-4-yl)amino]pyridin-3-yl}-1-[3-(pyrrolidin-1-yl)phenyl]-1H-pyrazolo[3,4-b]pyridine-6-carboxylic acid] | 398.4% | 698 nM | 630.25% | 505 nM
16 | COCCN(C)c1ccc(-c2cc(C(=O)O)nc3c2c(C(C)C)nn3-c2cccc(N3CCCC3)c2)cn1 [compound 253, 4-{6-[(2-methoxyethyl)(methyl)amino]pyridin-3-yl}-3-(propan-2-yl)-1-[3-(pyrrolidin-1-yl)phenyl]-1H-pyrazolo[3,4-b]pyridine-6-carboxylic acid] | 375.87% | 656 nM | 568.13% | 425 nM
17 | CC(C)c1nn(C2CCCCC2)c2nc(C(=O)O)cc(-c3ccc(N(C)C4CCOCC4)cc3)c12 [compound 254, 1-cyclohexyl-4-{4-[methyl(oxan-4-yl)amino]phenyl}-3-(propan-2-yl)-1H-pyrazolo[3,4-b]pyridine-6-carboxylic acid] | 234.6% | 611 nM | 417.67% | 333 nM
